The text below walks through data of patent US9351955B2, “Compounds and pharmaceutical compositions thereof for the treatment of cystic fibrosis” (Galapagos NV, priority 2013, dated 2016).

Assay type in all cases: cell-based
The target in test [1] is T1, CFTR-G178R (Homo sapiens, UniProt P13569, G178R).
T1 construct: expressed in transfected cells
The test can be described thus: YFP-halide influx assay for the CFTR-G178R. The conditions noted are these: read-out: EC50 measured by YFP-halide influx assay for the CFTR-G178R. The source says: (§1) The YFP halide influx assay measures the functionality of the cystic fibrosis Transmembrane Conductance regulator (CFTR) channels. The assay is used to evaluate the capacity of compounds to increase the channel opening of existing mutant CFTR channels in the membrane. It makes use of the observation that the yellow fluorescent protein (YFP) variant YFP H148Q, I152L, F47L has its fluorescence substantially quenched by halide ions like Cl^− and I^−. (Galietta et al., 2001)
(§2) For this purpose, HEK293-cells are seeded in 96 well plates. During seeding, the cells are reverse-transfected with plasmid vectors that direct the expression of the CFTR G551D mutant and of the YFP reporter. Cells are incubated at 37° C., 5% CO2 for 24 hours so as to allow for sufficient expression of the CFTR protein.
(§3) The I^−-induced quenching of fluorescence is recorded immediately after injection of I^− for 7 seconds. The capacity of a compound to increase the channel opening is directly correlated with the decrease in fluorescence, and is expressed as (1−(fluorescence after 7 seconds (F)/fluorescence before injection (F0))) and an EC50 can be derived from a (1−F/F0) vs compound concentration plot.
(§4) Similar YHA assays were developed for other channel gating defective or channel conductance defective CFTR mutants to determine effect of compound on channel activity. Examples of mutants are G178R, G1349D, S549N, R117H, R334W. This assay is also used for additional class I CFTR mutants, including G542X, W1282X; class II mutants including N1303K, and for class III mutants including S1251N; or wild-type CFTR.

The target of test [2] is T2, CFTR-R117H (Homo sapiens, UniProt P13569, R117H).
T2 construct: expressed in transfected cells
The test can be described thus: YFP-halide influx assay for the CFTR-R117H. The conditions noted are these: CFTR-R117H mutant; read-out: EC50 measured by YFP-halide influx assay for the CFTR-R117H.
Source text: as §1, §2, §3, §4

Test [3] addresses CFTR G551D (Homo sapiens, UniProt P13569, G551D). The test can be described thus: TECC assay, FRT cells stably transfected with G551D CFTR. The note with it: high expression CFTR-G551D cells, several values in a cell = repeat determinations. As to the method:
7.2.3. FRT-CFTR G551D Protocol
For G551D recordings, Fish Rat Thyroid (FRT) cells stably transfected with G551D CFTR (a low CFTR-G551D expressing cell line and a high expressing CFTR-G551D cell line from Rosalind Franklin University of medicine and science, Chicago, Ill.) are plated on Transwell supports (Costar 6.5 mm Diameter, […]). The cells are grown for 8-10 d under liquid-liquid interface conditions prior to electrophysiological readings. For electrophysiological recording, the FRT-G551D cells are mounted in the TECC heating plate for electrophysiological measurement and kept at 37° C. The epithelia are bathed in hepes buffered culturing medium without FBS on both the basolateral and apical sides. Apical amiloride is used to inhibit the endogenous ENaC currents while forkolin is applied on both apical and basolateral side to stimulate CFTR. After forskolin triggering, compounds are added on both sides to test their potential for increasing CFTR gating. Measurements are done during a 10 minute timeframe with recordings every 2 min. The increase in ISC is used as a measure for the increased CFTR activity, EC50 values can be generated by measuring impact of different concentrations of compound on ISC on the cells, for this purpose each transwell is treated with a different compound concentration. Inh-172, an inhibitor specific for CFTR, is used to test the specificity of the tested compounds.
When subjected to this protocol, the following EC50 are measured.

Test [4] concerns the target T3, CFTR G551D mutant (Homo sapiens, UniProt P13569, G551D).
T3 construct: expressed in transfected cells; host or cells: HEK293 (reverse transfection with plasmids)
The test is described as follows: YFP-halide influx assay for the CFTR-G551D mutation (HEK293 cells). The conditions noted are these: HEK293 cells expressing CFTR G551D and YFP reporter; forskolin 10.67 μM; read-out: EC50 measured by YFP-halide influx assay for the CFTR-G551D. The method in brief:
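HEK293 cells reverse-transfected with CFTR G551D and halide-sensitive YFP, expressed 24 h at 37 °C. Iodide-induced fluorescence quench recorded for 7 s after I^− injection; response as 1−F/F0, EC50 from concentration plot.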

For test [5], the target named is T4, CFTR-S549N (Homo sapiens, UniProt P13569, S549N).
T4 construct: expressed in transfected cells
The test is described as follows: YFP-halide influx assay for the CFTR-S549N. The note with it: CFTR-S549N mutant; read-out: EC50 measured by YFP-halide influx assay for the CFTR-S549N.
Source text: as §1, §2, §3, §4

Test [6] concerns the target T5, CFTR ΔF508 mutant (Homo sapiens, UniProt P13569, DEL508-508).
T5 construct: expressed in transfected cells; host or cells: CFBE41o- (adenoviral transduction)
The test is described as follows: YFP-halide influx assay for the CFTR-ΔF508 mutation (384 well, CFBE41o- cells, FDSS/μCell). The conditions noted are these: forskolin 10.67 μM, fluorescence after 36 seconds, read-out: EC50 measured by YFP-halide influx assay for the CFTR-ΔF508. The method in brief:
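CFBE41o- cells were adenovirally transduced with ΔF508 CFTR and the YFP H148Q/I152L reporter. Cells were then held 24 h at 27 °C or treated 24 h at 37 °C with a CFTR modulator. Iodide-induced quench was recorded for 2 min, and EC50 was derived from 1−F/F0 at 36 s against compound concentration.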

Test [7] deals with T6, CFTR-G1349D (Homo sapiens, UniProt P13569, G1349D).
T6 construct: expressed in transfected cells
The test is described as follows: YFP-halide influx assay for the CFTR-G1349D. The note with it: CFTR-G1349D mutant; read-out: EC50 measured by YFP-halide influx assay for the CFTR-G1349D.
Source text: as §1, §2, §3, §4

Test [8] deals with T5, CFTR ΔF508 mutant. The test is described as follows: YFP-halide influx assay for the CFTR-ΔF508 mutation (96 well, CFBE41o- cells). The note with it: compounds of the invention, 96 well, forskolin 10.67 μM, read-out: EC50 measured by YFP-halide influx assay for the CFTR-ΔF508. In a few lines: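 CFBE41o- cells were adenovirally transduced with CFTR ΔF508 and the halide-sensitive YFP H148Q/I152L. They were then corrected either at 27 °C for 24 h or with a CFTR modulator for 24 h at 37 °C. After iodide injection, YFP quenching over 7 s was expressed as 1−F/F0, and EC50 was derived from the concentration–response plot.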

Test [9] concerns the target T7, CFTR ΔF508 (Homo sapiens, UniProt P13569, DEL508-508).
T7 construct: host or cells: primary bronchial epithelial cells from CF patients homozygous for ΔF508, pre-treated with VX809
The test can be described thus: TECC assay, primary bronchial epithelial cells from CF patients homozygous for CFTR ΔF508. The note with it: primary bronchial epithelial cells, CFTR ΔF508; several values in a cell = repeat determinations. The method, then: 7.2.1. Primary Bronchial Epithelial Cells Protocol
The TECC (Tranepithelial Clamp Circuit, EP-design) assay measures the functionality of the cystic fibrosis Transmembrane Conductance regulator (CFTR) by measuring the short circuit current (ISC) generated over the basolateral and apical membrane of lung epithelial cells. In TECC the transepithelial potential PD and transepithelial resistance (Rt) are measured in an open circuit and transformed to ISC using Ohm's law. 24 wells can be measured simultaneously allowing a higher throughput compared to Ussing chambers.
For this purpose, bronchial epithelial cells isolated from CF patients homozygous for the CFTR ΔF508 mutation (hAEC-CF, Epithelix) are plated on type IV collagen-coated Transwell supports (Costar). Human airway epithelia are generated by provision of an air-liquid interface for 21 days to form well-differentiated polarized cultures that resemble in vivo pseudo-stratified ciliated epithelium (Fulcher et al., 2005). In the case of the homozygous ΔF508 CFTR samples, the differentiated cells are treated with 3 μM VX809 (2626 South Loop West, Suite 225, Houston, Tex. 77054 USA, Cat n#51565) to allow sufficient expression of properly folded CFTR protein on the membrane (48 hours basolateral treatment and 24 hours apical treatment), prior to electrophysiological recordings. […] G551D/ΔF508, differentiated cells are used as such for the recordings.
Information on the compounds can be retrieved on the homozygous ΔF508 CFTR samples looking at increased CFTR activity when compounds are added in an acute mode or in a chronic mode. On G551D/ΔF508 CFTR heterozygous samples compounds are added in an acute mode to the differentiated cells.
For the acute mode, for electrophysiological recording, the human airway epithelia are mounted in the TECC heating plate for electrophysiological measurement and kept at 37° C. The epithelia are bathed in a NaCl-Ringer solution (120 mM NaCl, 25 mM NaHCO3, 1.2 mM CaCl2, 1.2 mM MgCl2, 0.8 mM KH2PO4, 0.8 mM K2HPO4, pH 7.4, 5 mM glucose) on both the basolateral and apical sides. Apical amiloride is used to inhibit the endogenous ENaC currents while forkolin is applied on both apical and basolateral side to stimulate CFTR. After forskolin triggering, compounds are added on both sides to test their potential for increasing CFTR gating. Measurements are done during a 20 minute timeframe with recordings every 2 minutes. The increase in ISC is used as a measure for the increased CFTR activity, EC50 values can be generated by measuring impact of different concentrations of compound on ISC on primary cells, for this purpose each transwell is treated with a different compound concentration. Inh-172, an inhibitor specific for CFTR, is used to test the specificity of the tested compounds.
For the chronic mode, the differentiated cells are treated with 3 μM VX809 (2626 South Loop West, Suite 225, Houston, Tex. 77054 USA, Cat n#51565) and potentiator compounds at different concentrations (48 hours basolateral treatment and 24 hours apical treatment), prior to electrophysiological recordings. For electrophysiological recording, the human airway epithelia are mounted in the TECC heating plate for electrophysiological measurement and kept at 37° C. […]

T1 sequence (P13569 whole entry G178R): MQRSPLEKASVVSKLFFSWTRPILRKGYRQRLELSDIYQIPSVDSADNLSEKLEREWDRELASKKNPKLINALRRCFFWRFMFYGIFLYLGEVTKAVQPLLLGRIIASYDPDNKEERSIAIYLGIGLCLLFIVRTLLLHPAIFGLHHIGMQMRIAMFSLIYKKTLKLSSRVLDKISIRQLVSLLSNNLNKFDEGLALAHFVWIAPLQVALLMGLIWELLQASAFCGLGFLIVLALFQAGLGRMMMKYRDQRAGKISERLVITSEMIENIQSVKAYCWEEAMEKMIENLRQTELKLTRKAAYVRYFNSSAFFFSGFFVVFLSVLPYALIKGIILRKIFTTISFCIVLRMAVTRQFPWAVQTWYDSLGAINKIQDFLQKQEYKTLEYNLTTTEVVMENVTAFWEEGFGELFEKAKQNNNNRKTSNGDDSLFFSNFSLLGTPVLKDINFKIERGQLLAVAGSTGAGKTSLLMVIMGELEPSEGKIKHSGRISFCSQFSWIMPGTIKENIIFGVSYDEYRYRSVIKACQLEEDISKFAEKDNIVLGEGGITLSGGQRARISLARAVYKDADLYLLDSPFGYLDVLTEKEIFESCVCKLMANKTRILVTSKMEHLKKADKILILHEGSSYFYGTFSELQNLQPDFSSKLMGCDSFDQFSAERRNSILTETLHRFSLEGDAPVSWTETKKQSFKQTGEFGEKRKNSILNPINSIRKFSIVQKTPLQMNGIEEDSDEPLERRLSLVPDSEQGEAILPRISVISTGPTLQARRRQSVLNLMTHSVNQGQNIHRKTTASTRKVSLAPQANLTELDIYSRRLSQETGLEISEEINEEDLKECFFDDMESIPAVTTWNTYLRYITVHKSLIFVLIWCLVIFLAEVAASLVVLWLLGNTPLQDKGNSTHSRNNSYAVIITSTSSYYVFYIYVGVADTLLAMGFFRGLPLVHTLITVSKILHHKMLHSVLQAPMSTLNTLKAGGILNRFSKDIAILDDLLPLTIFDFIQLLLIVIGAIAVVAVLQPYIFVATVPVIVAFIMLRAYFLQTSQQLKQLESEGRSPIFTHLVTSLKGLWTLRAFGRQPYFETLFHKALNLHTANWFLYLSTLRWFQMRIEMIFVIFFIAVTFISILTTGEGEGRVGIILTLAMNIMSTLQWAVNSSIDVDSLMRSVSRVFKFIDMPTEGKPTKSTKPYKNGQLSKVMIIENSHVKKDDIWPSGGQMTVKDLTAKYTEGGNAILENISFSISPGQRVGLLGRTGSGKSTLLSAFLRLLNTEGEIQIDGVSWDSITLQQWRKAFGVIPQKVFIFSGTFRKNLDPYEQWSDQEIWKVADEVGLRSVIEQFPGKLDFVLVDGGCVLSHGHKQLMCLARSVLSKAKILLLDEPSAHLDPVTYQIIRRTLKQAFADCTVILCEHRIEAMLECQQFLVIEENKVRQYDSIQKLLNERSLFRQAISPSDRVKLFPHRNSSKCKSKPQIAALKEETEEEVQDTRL
T2 sequence (P13569 whole entry R117H): as the sequence (P13569 whole entry G178R) above, with R117H, R178G counted along it
T6 sequence (P13569 whole entry G1349D): as the sequence (P13569 whole entry G178R) above, with R178G, G1349D counted along it
T4 sequence (P13569 whole entry S549N): as the sequence (P13569 whole entry G178R) above, with R178G, S549N counted along it
T5 sequence (P13569 with tags, fused parts or gaps DEL508-508): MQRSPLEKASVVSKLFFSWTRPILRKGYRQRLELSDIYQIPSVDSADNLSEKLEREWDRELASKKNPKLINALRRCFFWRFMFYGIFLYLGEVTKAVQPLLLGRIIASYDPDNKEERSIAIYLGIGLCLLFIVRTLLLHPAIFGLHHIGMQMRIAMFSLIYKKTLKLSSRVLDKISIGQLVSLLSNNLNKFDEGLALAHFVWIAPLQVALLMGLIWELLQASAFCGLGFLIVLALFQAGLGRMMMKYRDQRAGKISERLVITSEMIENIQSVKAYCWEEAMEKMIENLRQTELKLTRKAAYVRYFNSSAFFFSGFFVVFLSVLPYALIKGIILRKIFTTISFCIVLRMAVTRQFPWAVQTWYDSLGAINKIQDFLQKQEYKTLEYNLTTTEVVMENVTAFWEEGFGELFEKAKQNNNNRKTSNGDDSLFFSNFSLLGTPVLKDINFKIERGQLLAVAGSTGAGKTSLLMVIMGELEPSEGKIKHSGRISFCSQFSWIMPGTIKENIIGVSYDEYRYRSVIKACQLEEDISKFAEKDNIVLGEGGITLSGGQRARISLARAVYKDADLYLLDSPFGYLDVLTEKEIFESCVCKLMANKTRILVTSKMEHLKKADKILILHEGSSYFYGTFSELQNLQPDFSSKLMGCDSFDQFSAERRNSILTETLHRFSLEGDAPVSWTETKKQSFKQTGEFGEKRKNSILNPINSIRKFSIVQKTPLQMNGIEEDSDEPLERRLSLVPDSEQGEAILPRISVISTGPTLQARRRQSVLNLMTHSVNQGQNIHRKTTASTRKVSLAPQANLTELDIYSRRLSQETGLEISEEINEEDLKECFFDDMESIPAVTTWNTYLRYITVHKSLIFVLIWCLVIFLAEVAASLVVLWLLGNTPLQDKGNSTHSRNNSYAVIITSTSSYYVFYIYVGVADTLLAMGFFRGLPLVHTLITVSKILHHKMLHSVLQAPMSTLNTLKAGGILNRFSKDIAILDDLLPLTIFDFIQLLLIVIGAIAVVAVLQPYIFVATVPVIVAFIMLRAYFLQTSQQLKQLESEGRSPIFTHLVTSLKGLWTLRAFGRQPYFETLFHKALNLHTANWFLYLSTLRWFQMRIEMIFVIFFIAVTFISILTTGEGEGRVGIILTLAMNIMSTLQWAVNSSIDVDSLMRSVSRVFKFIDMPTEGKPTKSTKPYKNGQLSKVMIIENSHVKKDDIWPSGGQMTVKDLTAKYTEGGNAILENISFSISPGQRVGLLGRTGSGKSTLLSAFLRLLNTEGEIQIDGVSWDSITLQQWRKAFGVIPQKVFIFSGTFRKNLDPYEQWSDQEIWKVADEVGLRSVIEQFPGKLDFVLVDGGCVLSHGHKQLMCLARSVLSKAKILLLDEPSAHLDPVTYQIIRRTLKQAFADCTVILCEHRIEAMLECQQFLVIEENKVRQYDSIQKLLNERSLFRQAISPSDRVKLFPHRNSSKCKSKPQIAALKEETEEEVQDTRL
T3 sequence (P13569 whole entry G551D): as the sequence (P13569 whole entry G178R) above, with R178G, G551D counted along it
CFTR G551D, sequence (P13569 whole entry G551D): as the sequence (P13569 whole entry G178R) above, with R178G, G551D counted along it
T7 sequence (P13569 with tags, fused parts or gaps DEL508-508): as the sequence (P13569 with tags, fused parts or gaps DEL508-508) above

The term EC50 denotes the concentration at which the effect is half-maximal. Consider `CC(C)(C)CC(O)C(=O)Nc1sc2c(c1C(N)=O)CC(C)(C)OC2(C)C` (single isomer, unassigned) [Compound 110, 2-[[2-hydroxy-4,4-dimethyl-pentanoyl]amino]-5,5,7,7-tetramethyl-4H-thieno[2,3-c]pyran-3-carboxamide], for which the EC50 in [1] stood at 22.5 nM; in test [2], 49.9 nM; in test [3] it was 193 nM; in [4], 209 nM; in [5] it was 261 nM; in [6] it was 0.66 nM. The EC50 in test [7] came to 142 nM.
On to `Cc1cn[nH]c1C(=O)Nc1sc2c(c1C(N)=O)CC(C)(C)OC2(C)C` [Compound 35, N-(3-carbamoyl-5,5,7,7-tetramethyl-5,7-dihydro-4H-thieno[2,3-c]pyran-2-yl)-4-methyl-1H-pyrazole-3-carboxamide], for which the EC50 came to 44.1 nM in test [1]; 180 nM in [2]; 43.7 nM in test [3]; 183 nM in test [4]; 120 nM in test [5]; 3 nM in test [8]. Besides, the EC50 stood at 2.44 nM in test [6] and 118 nM in test [7].
For `COCc1c[nH]nc1C(=O)Nc1sc2c(c1C(N)=O)CC(C)(C)OC2(C)C` [Compound 105, N-(3-carbamoyl-5,5,7,7-tetramethyl-4H-thieno[2,3-c]pyran-2-yl)-4-(methoxymethyl)-1H-pyrazole-3-carboxamide], the EC50 turned out to be 54.4 nM in [9]; 54.4 nM in test [1]; 435 nM in test [2]; 730 nM in [4]; 293 nM in test [5]; 6.67 nM in test [6]. The EC50 in test [7] came out at 120 nM.
On to `CC1(C)Cc2c(sc(NC(=O)c3cnco3)c2C(N)=O)C(C)(C)O1` [Compound 136, N-(3-carbamoyl-5,5,7,7-tetramethyl-4H-thieno[2,3-c]pyran-2-yl)oxazole-5-carboxamide], for which the EC50 came to 786 nM in test [1]; 807 nM in test [2]; 62500 nM in [3]; 2530 nM in test [4]; 2610 nM in test [5]; 81.5 nM in test [6]. In test [7], the EC50 is 1190 nM.
With `CC1(C)Cc2c(sc(NC(=O)C3(O)CCOCC3)c2C(N)=O)C(C)(C)O1` [Compound 154, 2-[(4-hydroxytetrahydropyran-4-carbonyl)amino]-5,5,7,7-tetramethyl-4H-thieno[2,3-c]pyran-3-carboxamide], the EC50 in test [9] is 502 nM; in test [1], 3330 nM; in [2], 1580 nM; in test [5] it was 2370 nM; in test [6], 62.5 nM; in [7], 3330 nM.
